Measurements: patent publication US7612064B2, “Sulfopyrroles” (Takeda Pharmaceutical Company Limited, priority 2003, dated 2009)

Key:
HeLa [1] = assay: MTS proliferation assay; format: cell-based, human; details: 72 h
In short: (§1)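 Absorbance at 492 nm after a 3 h MTS incubation reports viable cell number. Before that, compounds at 10 μM, 3 μM, 1 μM and 0.3 μM final stay on the cells for 72 h at culture conditions.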

Jurkat [2] = assay: MTS proliferation assay; format: cell-based, human; details: 72 h
In short: as §1

Jily = assay: MTS proliferation assay; format: cell-based; details: 72 h
In short: as §1

MRC5 = assay: MTS proliferation assay; format: cell-based; details: MRC5, 72 h
In short: as §1

HeLa [3] = assay: PI staining for cell cycle distribution; format: cell-based, human; set-up: key: 0: no effect; 1: weak effect; 2: strong effect; details: HeLa 10μM, 48 h
Description: (§2) 1-2*10^5 cells are seeded into 24 well tissue culture plates and incubated for 24 h prior to compound addition. […] Adherent cells are harvested by trypsinization. The cell suspensions are fixed by adding 2 parts ice cold ethanol 100% while vortexing. Then the samples are stored for>2 h at −20° C. Subsequently the cells are washed with PBS once and resuspended in 250 μl PBS containing 50 μg/ml PI (Calbiochem # 537059), then the samples are incubated at 37° C. for 30 min and subsequently analyzed on a FACSCalibur™ monitoring linear PI fluorescence activity on FL2. The readout allows the detection of a possible direct or indirect influence of the tested compounds on the cell cycle. The following events can occur: a) Generation of a subG1 peak indicative for DNA fragmentation, b) increase of the cell population arrested in G2M phase. Both events are scored by 1 for weak and 2 for strong occurrence. 0 indicates no occurrence at all.

Jurkat [4] = assay: PI staining for cell cycle distribution; format: cell-based, human; set-up: key: 0: no effect; 1: weak effect; 2: strong effect; details: Jurkat 3μM, 48 h
Description: as §2

[5] = Hoechst 33342 nuclear staining; format: cell-based; details: 24 h or 48 h incubation; for Hoechst 33342 nuclear staining score, H460: H460 cells; for Hoechst 33342 nuclear staining score, HeLa: HeLa cells; for Hoechst 33342 nuclear staining score, Jily: Jily cells; for Hoechst 33342 nuclear staining score, Jurkat: Jurkat cells; for Hoechst 33342 nuclear staining score, MRC5: MRC5 cells;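 on all read-outs here: apoptotic nuclei scored 0 none 1 weak under 50% of cells 2 strong over 50% of cells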
In short: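 Cells were plated in 96 well tissue culture plates in 80 μl complete medium, with 3-5*10^3 cells per well for adherent lines and 8-10*10^3 for suspension lines. Adherent cells spread for 24 h before treatment, while suspension cells were treated right after seeding. Compounds were added in 20 μl complete medium containing max 5% DMSO.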

[6] = conc 0.1 (final concentrations in μM)
[7] = conc 0.3 (final concentrations in μM)
[8] = conc 1 (final concentrations in μM)
[9] = conc 3 (final concentrations in μM)

Row | IC50 (HeLa [1]) [nM] | IC50 (Jurkat [2]) [nM] | Structure (SMILES) | IC50 (Jily) [nM] | IC50 (MRC5) [nM] | PI staining for cell cycle distribution, G2M (HeLa [3]) | PI staining for cell cycle distribution, subG1 (HeLa [3]) | PI staining for cell cycle distribution, G2M (Jurkat [4]) | PI staining for cell cycle distribution, subG1 (Jurkat [4]) | Hoechst 33342 nuclear staining score, H460 [5, 6] | Hoechst 33342 nuclear staining score, H460 [5, 7] | Hoechst 33342 nuclear staining score, H460 [5, 8] | Hoechst 33342 nuclear staining score, H460 [5, 9] | Hoechst 33342 nuclear staining score, HeLa [5, 6] | Hoechst 33342 nuclear staining score, HeLa [5, 7] | Hoechst 33342 nuclear staining score, HeLa [5, 8] | Hoechst 33342 nuclear staining score, HeLa [5, 9] | Hoechst 33342 nuclear staining score, Jily [5, 6] | Hoechst 33342 nuclear staining score, Jily [5, 7] | Hoechst 33342 nuclear staining score, Jily [5, 8] | Hoechst 33342 nuclear staining score, Jily [5, 9] | other results
1 | < 1000 | < 1000 | Cc1ccc(S(=O)(=O)n2cc(-c3ccc(S(N)(=O)=O)cc3)cc2-c2ccc3c(c2)OCO3)cc1 [Example 51] | < 1000 | < 1000 | 2 | 0 | 1 | 0 | 0 | 0 | 2 (strong activity comprising more than 50% of the cells) | 2 (strong activity comprising more than 50% of the cells) | 0 | 0 | 2 (strong activity comprising more than 50% of the cells) | 2 (strong activity comprising more than 50% of the cells) | 0 | 0 | 2 (strong activity comprising more than 50% of the cells) | 2 (strong activity comprising more than 50% of the cells) | Hoechst 33342 nuclear staining score, Jurkat [5, 6]: 0; Hoechst 33342 nuclear staining score, Jurkat [5, 7]: 0; Hoechst 33342 nuclear staining score, Jurkat [5, 8]: 2 (strong activity comprising more than 50% of the cells); Hoechst 33342 nuclear staining score, Jurkat [5, 9]: 2 (strong activity comprising more than 50% of the cells); Hoechst 33342 nuclear staining score, MRC5 [5, 6]: 0; Hoechst 33342 nuclear staining score, MRC5 [5, 7]: 0; Hoechst 33342 nuclear staining score, MRC5 [5, 8]: 1 (weak activity comprising less than 50% of the cells); Hoechst 33342 nuclear staining score, MRC5 [5, 9]: 1 (weak activity comprising less than 50% of the cells); Hoechst 33342 nuclear staining score, PBLs [5, 6]: 0; Hoechst 33342 nuclear staining score, PBLs [5, 7]: 0; Hoechst 33342 nuclear staining score, PBLs [5, 8]: 0; Hoechst 33342 nuclear staining score, PBLs [5, 9]: 0
2 | < 1000 | < 200 | COc1cc(-c2cc(-c3cncc(C(N)=O)c3)cn2S(=O)(=O)c2ccc(C)cc2)cc(OC)c1OC [Example 56] | < 1000 | < 1000 | 2 | 0 | 1 | 0 | 0 | 2 (strong activity comprising more than 50% of the cells) | 2 (strong activity comprising more than 50% of the cells) | 2 (strong activity comprising more than 50% of the cells) | 0 | 0 | 2 (strong activity comprising more than 50% of the cells) | 2 (strong activity comprising more than 50% of the cells) | 0 | 2 (strong activity comprising more than 50% of the cells) | 2 (strong activity comprising more than 50% of the cells) | 2 (strong activity comprising more than 50% of the cells) | Hoechst 33342 nuclear staining score, Jurkat [5, 6]: 0; Hoechst 33342 nuclear staining score, Jurkat [5, 7]: 2 (strong activity comprising more than 50% of the cells); Hoechst 33342 nuclear staining score, Jurkat [5, 8]: 2 (strong activity comprising more than 50% of the cells); Hoechst 33342 nuclear staining score, Jurkat [5, 9]: 2 (strong activity comprising more than 50% of the cells); Hoechst 33342 nuclear staining score, MRC5 [5, 6]: 0; Hoechst 33342 nuclear staining score, MRC5 [5, 7]: 2 (strong activity comprising more than 50% of the cells); Hoechst 33342 nuclear staining score, MRC5 [5, 8]: 2 (strong activity comprising more than 50% of the cells); Hoechst 33342 nuclear staining score, MRC5 [5, 9]: 2 (strong activity comprising more than 50% of the cells); Hoechst 33342 nuclear staining score, PBLs [5, 6]: 0; Hoechst 33342 nuclear staining score, PBLs [5, 7]: 0; Hoechst 33342 nuclear staining score, PBLs [5, 8]: 0; Hoechst 33342 nuclear staining score, PBLs [5, 9]: 0
